Reference: PMC6447718, “PACAP-38 and PACAP(6–38) Degranulate Rat Meningeal Mast Cells via the Orphan MrgB3-Receptor” (Frontiers in Cellular Neuroscience, 2019)
“Also recorded” adds a separate entry of the source. Ends that are not written are not given here.

Key:
[1] = tested on: rat meningeal mast cells; assay: Mast cell degranulation in hemi-skull preparations (dura mater, toluidine blue staining, microscopic count); format: cell-based, rat (male Sprague-Dawley)
Protocol: Mast cell degranulation was performed as previously described (Pedersen et al., [2015]). In brief, skulls were cut mid-sagittal and the brain halves were removed, leaving the dura mater undisturbed. This was followed by immediate addition of either 350 μl 0.1, 1 or 10 μM PACAP-38 (custom synthesis by Caslo Laboratory ApS, Lyngby, Denmark) or vehicle (saline) in phosphate buffered saline (PBS). After 30 s incubation, the reactions were terminated, and the skulls were fixated in 4% paraformaldehyde in phosphate buffered saline (PBS; Glostrup Hospital Pharmacy, Denmark). The dura mater was dissected from the skull, whole mounted on slides, and mast cells were visualized by staining with 0.1% acidified toluidine blue (Sigma Aldrich, Germany). Tissues were dehydrated in graded alcohols prior to cover slip mounting. The level of mast cell degranulation was evaluated by 400× magnification (Nikon Eclipse Ni microscope) by a researcher blinded to the treatment and was counted in 10 consecutive fields along the stem part of the middle meningeal artery. Mast cells were considered degranulated if an extensive dispersion of more than 10 extruded granules were localized outside the cell or if an extensive loss of staining gave the cell a “ghostly” look.
(§1) Concentration-response curves for both oocytes and dural mast cells were analyzed for overall effects of PACAP-38 and -27 by two-way analyses of variance (ANOVA) followed by Sidak’s test for multiple pairwise comparisons. Effects of PAC1-receptor ligands on mast cell degranulation or on receptor-expressing oocytes were analyzed with a one-way ANOVA followed by Tukey’s multiple comparisons test. The effect of PACAP-38 and PACAP(6–38) on MrgB3-expressing oocytes were analyzed by an unpaired two-tailed t-test. Differences between groups were considered significant when p < 0.05 and data are presented as mean with standard error of the mean (±SEM). GraphPad Prism 7 (GraphPad Prism Software, San Diego, CA, USA) was used for statistical analysis.

[2] = tested on: PAC1-receptor (Rattus Norvegicus Adcyap1r1 variant 5, null-splice variant); format: cell-based
Source text: (§2) DNA of the coding region of Rattus Norvegicus Adcyap1r1 variant 5 (NM_001270582.1) encoding the null-splice variant (short N-terminal and neither exon 14 or 15) of the PAC1-receptor (Vector: EX-Rn10199-M03) was ordered from GeneCopoeia. DNA encoding the RGD1560730 gene (XM_006229262.3, GenScript), was cloned into the pXOOM vector as previously described (Jespersen et al., [2002]). DNA was purified using Plasmid DNA Purification NucleoBond Xtra Midi-kit (Macherey-Nagel). […] Extracted plasmids were linearized down-stream the poly(A) segment using the XhoI restriction enzyme (New England Biolabs, Ipswich, MA, USA). RNA was in vitro transcribed by synthetization from the T7 RNA polymerase promoter using the mMessenger mMachine kit (Ambion) according to manufacturer’s protocol. Messenger RNA was purified using the MEGAclear kit (Ambion). Transcribed RNA integrity was assessed by agarose gel electrophoresis.
(§3) Stage V and VI defolliculated Xenopus laevis oocytes were purchased from EcoCyte Bioscience (Dortmund, Germany) and kept in Kulori medium (90 mM NaCl, 4 mM KCl, 1 mM MgCl2, 1 mM CaCl2, and 5 mM Hepes, pH 7.4). Oocytes were micro-injected with 50 nl mRNA solution containing 30 ng RNA per oocyte and incubated at 19°C. Currents were measured after 2–5 days using a conventional two-electrode-voltage clamp (TEVC). The oocytes were placed in a 200 μl chamber and continuously exposed to a flow of Kulori medium with or without ligands (1 ml/min) while impaled with both a current and a voltage electrode filled with 3 M KCl and connected to an Oocyte Clamp Amplifier [Warner Instruments Corp. (OC-725 B) and a PC-interface (Digidata1440A, Molecular Devices)]. Current amplitude in absence or presence of ligands were analyzed using pClamp 10.2 software (Molecular Devices). All experiments were performed with oocyte membrane voltages constantly clamped to −70 mV and the temperature was kept between 19 and 22°C. In activation experiments, non-responding as well as low-responding (<10 nA) oocytes were excluded from the dataset. Ligands PACAP-38, PACAP-27, PACAP(6–38) were custom synthetized by Caslo (Lyngby, Denmark) while maxadilan was purchased from Bachem (Bubendorf, Switzerland).
as §1

[3] = tested on: MrgB3-receptor (RGD1560730); assay: Two-electrode voltage clamp on MrgB3-receptor-expressing Xenopus laevis oocytes; format: cell-based, rat; settings: 1–10 μM, holding potential −70 mV
Source text: as §2, §3, §1

[4] = tested on: PAC1-receptor (Rattus Norvegicus Adcyap1r1 variant 5, null-splice variant); assay: Antagonism of PACAP-38-induced currents in PAC1-receptor-expressing oocytes (TEVC); format: cell-based
Source text: as §2, with “RNA was in vitro transcribed by synthetization from the T7 RNA polymerase promoter using the mMessenger mMachine kit (Ambion) according to manufacturer’s protocol. Messenger RNA was purified using the MEGAclear kit (Ambion).” left out
Stage V and VI defolliculated Xenopus laevis oocytes were purchased from EcoCyte Bioscience (Dortmund, Germany) and kept in Kulori medium (90 mM NaCl, 4 mM KCl, 1 mM MgCl2, 1 mM CaCl2, and 5 mM Hepes, pH 7.4). […] Currents were measured after 2–5 days using a conventional two-electrode-voltage clamp (TEVC). […] Current amplitude in absence or presence of ligands were analyzed using pClamp 10.2 software (Molecular Devices). […]
Concentration-response curves for both oocytes and dural mast cells were analyzed for overall effects of PACAP-38 and -27 by two-way analyses of variance (ANOVA) followed by Sidak’s test for multiple pairwise comparisons. […]

[5] = tested on: rat peritoneal mast cells; settings: rat peritoneal mast cells; ref Baun et al., 2012; cited from earlier work
Source text: Inspired by clinical findings, we have previously characterized the degranulating effect of various PACAP-analogues on isolated rat peritoneal mast cells. Based on the expectation that degranulation is mediated through the PAC1-receptor, we found an unpredicted order of potency (Baun et al., [2012]).

[6] = tested on: VPAC1; settings: cited from earlier work
Source text: (§4) Pituitary adenylate cyclase-activating peptide-38 (PACAP-38) is a 38-amino acid neuropeptide located in both sensory and parasympathetic perivascular nerve fibers (Moller et al., [1993]; Mulder et al., [1994]). A C-terminal truncated 27-amino acid (PACAP-27) version is endogenously present as well but is less abundant (Miyata et al., [1990]; Arimura et al., [1991]; Ogi et al., [1993]).

[7] = tested on: VPAC2; settings: cited from earlier work
Source text: as §4

[8] = tested on: MrgB3-receptor; settings: ref Tatemoto et al., 2006; cited from earlier work
Source text: The exact mechanism of basic secretagogue-mediated mast cell degranulation remains unclear. […] However, this would require the ability of peptides, despite their positive charge, to diffuse across the membrane in order to reach intracellular G-proteins, and as this has not been shown, the hypothesis seems unlikely (Tat ...

[9] = tested on: migraine patients; settings: migraineurs; ref Rahmann et al., 2008; cited from earlier work
Source text: as §4, with “[1993]). […] Degranulation of mast cells can be induced either by an allergen-IgE-dependent mechanism or via an IgE-independent mechanism. The latter mechanism can be activated by a group of molecules known as basic secretagogues.” for “[1993]).”

[10] = tested on: calcitonin gene-related peptide (CGRP) release from the trigeminal nucleus caudalis; settings: ref Jansen-Olesen et al., 2014; cited from earlier work
Source text: Future studies will have to rule out if MrgB3-receptors are involved in PACAP- ...

[11] = tested on: PAC1-receptor; settings: relative to PACAP; ref Miyata et al., 1989, 1990; Harmar et al., 1998; cited from earlier work
Source text: Pituitary adenylate cyclase-activating peptide-38 (PACAP-38) is a 38-amino acid neuropeptide located in both sensory and parasympathetic perivascular nerve fibers (Moller et al., [1993]; Mulder et al., [1994]). A C-terminal truncated 27-amino acid (PACAP-27) version is endogenously present as well but is less abundant (Miyata et al., [1990]; Arimura et al., [1991]; Ogi et al., [1993]). […] At present, three PACAP-receptors have been identified: PA ... || Several different splice variants of the PAC1-receptor have been identified in rats. Splice sites in the extracellular N-terminal domain and the third intracellular loop account for fine tuning of ligand affinity and signal transduction through adenylate cyclase or PLC activation (Deutsch and Sun, [1992]; Spengler et al., [1993]).

[12] = tested on: VPAC1-receptor; design: method as in Harmar et al., 2012; settings: PACAP-38, PACAP-27 and VIP compared; ref Harmar et al., 2012; cited from earlier work
[13] = tested on: VPAC2-receptor; design: method as in Harmar et al., 2012; settings: PACAP-38, PACAP-27 and VIP compared; ref Harmar et al., 2012; cited from earlier work
[14] = ref Spengler et al., 1993, Pantaloni et al., 1996

Pituitary Adenylate Cyclase Activating Peptide(6–38) (FTDSYSRYRKQMAVKKYLAAVLGKRYKQRVKNK; ends and bridges not checked; UniProt P18509 137-169, looked up, fragment) [PACAP(6–38), PAC1-receptor antagonist, custom synthetized by Caslo]
mast cell degranulation ([1]; 10 μM, Figure 6A, PACAP(6–38) n = 7 (p < 0.0001), PACAP-38 n = 5, mean ± SEM): 93 ± 2%
mast cell degranulation (result in words) ([1]; 0.1 to 10 μM, 30 s, rat meningeal mast cells): as potent as PACAP-38; also recorded: potent degranulator of rat meningeal mast cells
current ([2]; 0.1 μM alone, 1 min perfusion, −70 mV, Figure 6B, n = 9, mean ± SEM): −5 ± 6 nA
activation of PAC1-receptor / relative potency (result in words) ([2]; 0.01 to 1 μM, holding potential −70 mV): unable to induce currents
activation of MrgB3-receptor (result in words) [3]: agonistic effect on MrgB3-receptors expressed in oocytes; also recorded: equipotent to PACAP-38; also recorded: induce a significant current in MrgB3-receptor-expressing oocytes
inhibition of PACAP-38 induced responses (result in words) ([4]; PACAP(6–38) 0.1 μM together with PACAP-38, one-way ANOVA, Tukey's test): significantly antagonized; also recorded: significant inhibition of PACAP-38 induced responses
PACAP-38-induced current in presence of antagonist ([4]; PACAP(6–38) administered together with PACAP-38 in 0.1 μM, −70 mV, n = 10, mean ± SEM, PACAP-38 alone −0.18 ± 0.5 μA): −0.05 ± 0.02 μA
peritoneal mast cell degranulation (result in words) [5]: pronounced mast cell degranulation; also recorded: as potent as PACAP-38
affinity to VPAC1-receptor (result in words) ([6]; ref Harmar et al., 2012): has not been shown to have an affinity
affinity to VPAC2-receptor (result in words) ([7]; ref Harmar et al., 2012): has not been shown to have an affinity

[D-Trp^7,9,10]-substance P
affinity to MrgB3-receptor (result in words) [8]: affinity

vasoactive intestinal peptide [VIP]
peritoneal mast cell degranulation (result in words) [5]: not PACAP-27 and VIP, caused degranulation; also recorded: weak degranulating effect
migraine attacks / headache after infusion (result in words) [9]: only induces a mild headache and no migraine-like attacks in migraineurs; also recorded: does not provoke migraine headache
release of CGRP from the trigeminal nucleus caudalis (result in words) [10]: neither VIP, PACAP-27 nor maxadilan, mediated the release
binding to the PAC1-receptor, times lower than PACAP [11]: 1,000 times
affinity to VPAC1 relative to PACAP (result in words) [6, 14]: equals that of PACAP
affinity to VPAC2 relative to PACAP (result in words) [7, 14]: equals that of PACAP
profile on VPAC1-receptor (result in words) [12]: equipotent
profile on VPAC2-receptor (result in words) [13]: equipotent
